Experimental data from patent publication US7935686B2, “Acyloxyalkyl carbamate prodrugs, methods of synthesis, and use” (XenoPort, Inc., priority 2004, dated 2011).

How the values were obtained:
[1] = animal models (Merino et al.); cited from earlier work
[2] = Prodrug in vitro metabolism, rat plasma; type: in vitro ADME; conditions: 2.0 μM substrate, no cofactors, 37° C.
Protocol: (§1) The stabilities of prodrugs were evaluated in one or more in vitro systems using a variety of preparations following methods known in the art. Tissues and/or preparations were obtained from commercial sources (e.g., Pel-Freez Biologicals, Rogers, Ark., or GenTest Corporation, Woburn, Mass.). Experimental conditions used for the in vitro studies are described in Table 1. Each preparation was incubated with test compound at 37° C. for one hour. Aliquots (50 μL) were removed at 0, 30, and 60 min and quenched with 0.1% trifluoroacetic acid in acetonitrile. Samples were then centrifuged and analyzed by LC/MS/MS. Stability of prodrugs towards specific enzymes (e.g., peptidases, etc.) were also assessed in vitro by incubation with the purified enzyme: […]

[3] = Prodrug in vitro metabolism, human plasma; type: in vitro ADME; conditions: 2.0 μM substrate, no cofactors, 37° C.
Protocol: as §1

[4] = Prodrug in vitro metabolism, rat liver S9; type: in vitro ADME; conditions: Rat Liver S9 (0.5 mg/mL), 2.0 μM substrate, NADPH, 37° C.
Protocol: as §1

[5] = Prodrug in vitro metabolism, human liver S9; type: in vitro ADME; conditions: Human Liver S9 (0.5 mg/mL), 2.0 μM substrate, NADPH, 37° C.
Protocol: as §1

[6] = Caco-2 homogenate S9 stability; type: in vitro ADME; conditions: Caco-2 S9 (0.5 mg protein per mL), 5 μM prodrug, 37° C.
Protocol: Caco-2 Homogenate S9 Stability: Caco-2 cells were grown for 21 days prior to harvesting. Culture medium was removed and cell monolayers were rinsed and scraped off into ice-cold 10 mM sodium phosphate/0.15 M potassium chloride, pH 7.4. Cells were lysed by sonication at 4° C. using a probe sonicator. Lysed cells were then transferred into 1.5 mL centrifuge vials and centrifuged at 9000 g for 20 min at 4° C. The resulting supernatant (Caco-2 cell homogenate S9 fraction) was aliquoted into 0.5 mL vials and stored at −80° C. until used.
For stability studies, prodrug (5 μM) was incubated in Caco-2 homogenate S9 fraction (0.5 mg protein per mL) for 60 min at 37° C. Concentrations of intact prodrug and released parent drug were determined at zero time and 60 minutes using LC/MS/MS.

pancreatin = assay: Pancreatin stability; type: in vitro ADME, porcine; conditions: 1% (w/v) pancreatin, 5 μM prodrug, pH 7.5, 37° C.
Protocol: The stabilities of prodrugs were evaluated in one or more in vitro systems using a variety of preparations following methods known in the art. Tissues and/or preparations were obtained from commercial sources (e.g., Pel-Freez Biologicals, Rogers, Ark., or GenTest Corporation, Woburn, Mass.). Experimental conditions used for the in vitro studies are described in Table 1. Each preparation was incubated with test compound at 37° C. for one hour. Aliquots (50 μL) were removed at 0, 30, and 60 min and quenched with 0.1% trifluoroacetic acid in acetonitrile. Samples were then centrifuged and analyzed by LC/MS/MS. Stability of prodrugs towards specific enzymes (e.g., peptidases, etc.) were also assessed in vitro by incubation with the purified enzyme:
Pancreatin Stability: Stability studies were conducted by incubating prodrug (5 μM) with 1% (w/v) pancreatin (Sigma, P-1625, from porcine pancreas) in 0.025 M Tris buffer containing 0.5 M NaCl (pH 7.5) at 37° C. for 60 min. The reaction was stopped by addition of 2 volumes of methanol. After centrifugation at 14,000 rpm for 10 min, the supernatant was removed and analyzed by LC/MS/MS.

SMILES | absorption following administration into the colon [1] | Percent of Prodrug Remaining after 60 min. [2] [%] | Percent of Prodrug Remaining after 60 min. [3] [%] | Percent of Prodrug Remaining after 60 min. [4] [%] | Percent of Prodrug Remaining after 60 min. [5] [%] | Percent of Prodrug Remaining after 60 min. [6] [%] | Percent of Prodrug Remaining after 60 min. (pancreatin) [%]
NCC(CC(=O)O)c1ccc(Cl)cc1 (racemic) [Baclofen, (±)-4-Amino-3-(4-chlorophenyl)butanoic acid] | poorly absorbed | – | – | – | – | – | –
CC(OC(=O)NCCCP(C)(=O)O)OC(=O)C(C)C (stereo not shown) [Compound 111, 3-{[1-Isobutanoyloxyethoxy]carbonylamino}propyl Methylphosphinic Acid] | – | 40 | 84 | 82 | 81 | 82 | 79
CC(OC(=O)NCCCP(C)(=O)O)OC(=O)C1CCCCC1 (stereo not shown) [Compound 114, 3-{[1-Cyclohexanoyloxyethoxy]carbonylamino}propyl Methylphosphinic Acid] | – | 98 | 97 | 51 | 43 | 82 | 24
CC(C)C(=O)OCOC(=O)NCCCP(C)(=O)O [Compound 115, 3-{[Isobutanoyloxymethoxy]carbonylamino}propyl Methylphosphinic Acid] | – | 7 | 30 | 67 | 57 | 20 | 20
CC(C)C(=O)OC(OC(=O)NCCCP(C)(=O)O)C(C)C (stereo not shown) [Compound 194, 3-{[1-Isobutanoyloxyisobutoxy]carbonylamino}propyl Methylphosphinic Acid] | – | 38 | 77 | 63 | 66 | 71 | 91
CP(=O)(O)CCCNC(=O)OCOC(=O)c1ccccc1 [Compound 195, 3-{[Benzoyloxymethoxy]carbonylamino}propyl Methylphosphinic Acid] | – | 100 | 78 | 85 | 64 | 91 | 62
